Measurements reported in PMC9653409, “Generative deep learning enables the discovery of a potent and selective RIPK1 inhibitor” (Nature Communications, 2022).
Several values for one entry are separate records, joined by “and”; a condition that tells them apart may be missing. Identical values can stand only once.

Columns and labels:
IL-6 = test: DSS-induced IBD mouse model: IL-6 in cultured colon supernatant (ELISA); type: in vivo, C57BL/6 female mice
Experimental: (§1) DSS (3% w/v) was administered in drinking water ad libitum for 7 d (from day 0 to day 7). DSS solution was replaced three times on day 2, day 4, and day 6. […] Three mice in each group were killed at random on day 7, and distal colon tissues were collected for analysis. The mice weight and survival rate were recorded daily.
(§2) In the TNFα-induced SIRS model, at 6 h after TNFα injection, four mice in each group were killed at random, and the serums were collected, the serum concentrations of IL-1β and IL-6 were measured using ELISA kits (Neobioscience Technology) according to manufacturer’s instructions. […] The supernatant was collected by sequential centrifugation at 500 × g for 10 min and 3000 × g for 10 min. The concentrations of cytokines TNFα, IL-6, and IL-1β were measured using ELISA kits (Neobioscience Technology).

DSS-induced IBD = DSS-induced IBD mouse model: body weight; type: in vivo, C57BL/6 female mice; settings: for Body Weight (%): Figure 9a
Experimental: as §1

RIPK1 = molecular target: T1, RIPK1 (Homo sapiens, UniProt Q13546); test: RIPK1 kinase assay, ADP-Glo assay; type: biochemical
T1 sequence (Q13546 1-671): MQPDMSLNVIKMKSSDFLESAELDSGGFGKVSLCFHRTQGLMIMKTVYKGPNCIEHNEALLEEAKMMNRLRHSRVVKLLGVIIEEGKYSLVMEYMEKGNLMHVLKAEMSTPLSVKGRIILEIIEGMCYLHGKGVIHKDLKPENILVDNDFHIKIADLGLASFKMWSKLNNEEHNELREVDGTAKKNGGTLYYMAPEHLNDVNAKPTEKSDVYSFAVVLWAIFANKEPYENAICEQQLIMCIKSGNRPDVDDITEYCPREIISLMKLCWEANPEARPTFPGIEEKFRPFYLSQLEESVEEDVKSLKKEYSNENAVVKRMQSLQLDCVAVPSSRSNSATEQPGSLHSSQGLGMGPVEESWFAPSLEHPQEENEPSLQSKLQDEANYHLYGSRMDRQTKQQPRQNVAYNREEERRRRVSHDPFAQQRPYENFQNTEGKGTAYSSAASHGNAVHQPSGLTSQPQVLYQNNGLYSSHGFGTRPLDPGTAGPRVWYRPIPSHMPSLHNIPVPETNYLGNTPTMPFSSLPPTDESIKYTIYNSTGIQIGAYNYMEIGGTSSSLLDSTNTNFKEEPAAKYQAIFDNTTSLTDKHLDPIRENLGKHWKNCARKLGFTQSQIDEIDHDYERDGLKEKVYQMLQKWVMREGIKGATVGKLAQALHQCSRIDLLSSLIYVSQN

HT29 cells = test: TSZ-induced HT29 cell necroptosis model (CCK8); type: cell-based; settings: Homo sapiens, HT-29
Experimental: (§3) Cell necroptosis protection assays were performed in 96-well cell culture plates. Cells were plated in each well and cultured at 37 °C overnight. […] The cell survival rate was determined using a CCK8 cell viability assay kit and CLARIOstar (v5.61). […] All experiments were performed at least two times, and each EC50 value was expressed as mean ± standard deviation (SD).

J774A.1 cells = test: TSZ-induced J774A.1 cell necroptosis model (CCK8); type: cell-based; settings: Mus musculus, J774.A1
Experimental: as §3

TNFα-induced SIRS = TNFα-induced SIRS mouse model: survival; type: in vivo, C57BL/6 female mice
IL-1β = test: DSS-induced IBD mouse model: IL-1β in cultured colon supernatant (ELISA); type: in vivo, C57BL/6 female mice
Experimental: as §1, §2

SMILES: CC(C)C(=O)Nc1nc2cc(-c3ccc4c(c3)c(C(=O)NC(C)c3ccccc3)cn4C)ccn2n1 (centres unmarked) [RI-962]
- content of IL-6 in cultured colonic tissue supernatants (IL-6; 40 mg/kg i.p., day 7): substantially reduced
- IL-6 (IL-6; Figure 9i, individual replicates 1-3): 994.1 pg/mL and 876.1 pg/mL and 967.8 pg/mL
- loss of body weight (DSS-induced IBD; 40 mg/kg i.p. once a day): strongly ameliorated this loss of body weight
- Body Weight (%) (DSS-induced IBD; day 0): 100%
- Body Weight (%) (DSS-induced IBD; day 1): 97.11%
- Body Weight (%) (DSS-induced IBD; day 2): 98.41%
- Body Weight (%) (DSS-induced IBD; day 3): 102.3%
- Body Weight (%) (DSS-induced IBD; day 4): 103.1%
- Body Weight (%) (DSS-induced IBD; day 5): 104.6%
- Body Weight (%) (DSS-induced IBD; day 6): 103.5%
- Body Weight (%) (DSS-induced IBD; day 7): 103.5%
- Body Weight (%) (DSS-induced IBD; day 8): 99.79%
- Body Weight (%) (DSS-induced IBD; day 9): 98.12%
- Body Weight (%) (DSS-induced IBD; day 10): 98.15%
- Body Weight (%) (DSS-induced IBD; day 11): 100.8%
- Body Weight (%) (DSS-induced IBD; day 12): 100.7%
- Body Weight (%) (DSS-induced IBD; day 13): 102.5%
- Body Weight (%) (DSS-induced IBD; day 14): 104.7%
- inhibition at 0.000152416 µM (RIPK1; 0.152416 nM): -7.04%
- inhibition at 0.000457247 µM (RIPK1; 0.457247 nM): -2.09%
- inhibition at 0.00137174 µM (RIPK1; 1.371742 nM): 5.59%
- inhibition at 0.00411523 µM (RIPK1; 4.115226 nM): 34.1%
- inhibition at 0.0123457 µM (RIPK1; 12.345679 nM): 80%
- inhibition at 0.037037 µM (RIPK1; 37.037037 nM): 94%
- inhibition at 0.111111 µM (RIPK1; 111.111111 nM): 95.3%
- inhibition at 0.333333 µM (RIPK1; 333.333333 nM): 96.3%
- inhibition at 1 µM (RIPK1; 1000.000000 nM): 98.1%
- inhibition at 3 µM (RIPK1; 3000.000000 nM): 99.3%
- IC50 (RIPK1; ADP-Glo assay): 5.9 nM
- viability at 56 pM (HT29 cells; 0.000056 μM): 20.2%
- viability at 0.000169 µM (HT29 cells; 0.000169 μM): 21.7%
- viability at 0.000508 µM (HT29 cells; 0.000508 μM): 21.7%
- viability at 0.001524 µM (HT29 cells; 0.001524 μM): 23.4%
- viability at 0.004572 µM (HT29 cells; 0.004572 μM): 36.3%
- viability at 0.013717 µM (HT29 cells; 0.013717 μM): 78.8%
- viability at 0.041152 µM (HT29 cells; 0.041152 μM): 96.7%
- viability at 0.123457 µM (HT29 cells; 0.123457 μM): 109%
- viability at 0.37037 µM (HT29 cells; 0.370370 μM): 110%
- viability at 1.11111 µM (HT29 cells; 1.111111 μM): 107%
- viability at 3.33333 µM (HT29 cells; 3.333333 μM): 109%
- viability at 10 µM (HT29 cells; 10.000000 μM): 109%
- EC50 (HT29 cells; HT29 treated with TSZ, 24 h, read-out: EC50): 10 nM
- viability at 56 pM (J774A.1 cells; 0.000056 μM): 1.06%
- viability at 0.000169 µM (J774A.1 cells; 0.000169 μM): 1.51%
- viability at 0.000508 µM (J774A.1 cells; 0.000508 μM): 3.42%
- viability at 0.001524 µM (J774A.1 cells; 0.001524 μM): 11.4%
- viability at 0.004572 µM (J774A.1 cells; 0.004572 μM): 24.7%
- viability at 0.013717 µM (J774A.1 cells; 0.013717 μM): 48.7%
- viability at 0.041152 µM (J774A.1 cells; 0.041152 μM): 85.3%
- viability at 0.123457 µM (J774A.1 cells; 0.123457 μM): 88.9%
- viability at 0.37037 µM (J774A.1 cells; 0.370370 μM): 93%
- viability at 1.11111 µM (J774A.1 cells; 1.111111 μM): 98.3%
- viability at 3.33333 µM (J774A.1 cells; 3.333333 μM): 91.5%
- EC50 (J774A.1 cells; J774A.1 treated with TSZ, 24 h): 11.4 nM
- survival rate (TNFα-induced SIRS; 40 mg/kg i.p. 15 min before mTNFα 300 μg/kg i.v.): 90%
- 1 means death, 0 means survival (TNFα-induced SIRS; 40 mg/kg i.p., per animal): 1 and 0
- Time after mTNFα (TNFα-induced SIRS; 40 mg/kg i.p., per animal, time of death or end of observation): 24 h and 72 h
- content of IL-1β in cultured colonic tissue supernatants (IL-1β; 40 mg/kg i.p., day 7): substantially reduced
- IL-1β (IL-1β; Figure 9h, individual replicates 1-3): 46.88 pg/mL and 42.98 pg/mL and 47.29 pg/mL
